{
  "source": "paper PMC3944389",
  "about": "“Differential Neuroprotective Effects of 5′-Deoxy-5′-Methylthioadenosine” (PLoS ONE, 2014)",
  "key": {"[1]": {"system": "rat mixed cultures of neurons and astrocytes", "assay": "Oxygen-glucose deprivation (OGD) with iodoacetate, LDH release", "format": "cell-based", "conditions": "IAA 20 and 50 µM; MTA 10 µM or 100 µM, APV 100 µM", "method": "(§1) Finally, to prepare neuron-astrocyte co-cultures, neurons were resuspended in B27 Neurobasal medium plus 10% of foetal bovine serum (FBS) and then seeded onto a monolayer of astrocytes in 24-well plates at a density of 1–2×10^5 cells per well, the astrocytes having been prepared beforehand, as described elsewhere. One day later, the medium was replaced with B27-Neurobasal plus 10% FBS medium, and the cells were maintained at 37°C in 5% CO2. The cultures were used 8–9 days after plating. Neurons and astrocytes were identified with antibodies against microtubule-associated protein-2 and GFAP, respectively.\nIschemic damage was induced by incubating cell cultures for 1 h in a hyperbaric chamber in a nitrogen-saturated buffer containing: 130 mM NaCl, 5.4 mM KCl, 0.1323 mM CaCl2, 0.26 mM NaHCO3, 0.8 mM MgCl2, 1.18 mM NaH2PO4, 10 mM sucrose (OGD plus sucrose) and iodoacetate (IAA, 20 or 50 µM). IAA is a glycolytic blocker typically used in OGD experiments to simulate ischemic conditions. After the insult, the cells were incubated under normoxic conditions for an additional 24 h in the presence of glucose but in the absence of IAA. Distinct reagents were added during ischemia to evaluate their neuroprotective activity by assessing cell viability and cell death in the cultures.\nThe cell status was assessed by measuring the release of lactate dehydrogenase (LDH) from dead cells. LDH was measured spectrophotometrically at 490 nm on a 96-well plate reader using the Cytotox 96 Kit according to the manufacturer's instructions (Promega). The LDH release was defined by the ratio of LDH released to the total LDH present in the cell at the beginning of the treatment."}, "[2]": {"assay": "Parallel artificial membrane permeability assay (PAMPA), BBB model, passive diffusion", "format": "in vitro ADME", "method": "The PAMPA assay was used to determine the capacity of compounds to cross a blood brain barrier (BBB) model by passive diffusion, measuring the effective permeability of the compounds at an initial concentration of 200 µM. The buffer solution was prepared from a concentrated commercial solution (Pion, Billerica, MA, US) according to the manufacturer's instructions and the pH was adjusted to 7.4 with 0.5 M NaOH. The compound of interest was dissolved in the buffer solution (200 µM), the PAMPA sandwich was separated and the donor well was filled with 195 µL of the compound of interest. The acceptor plate and donor plate were brought together, with the underside of the membrane in contact with the buffer. An 4 µL aliquot of the phospholipid mixture (20 mg/ml) in dodecane was added to the filter of each well, and then 200 µL of buffer solution was added to each acceptor well. The plate was covered and incubated for 4 h at RT in a saturated humidity atmosphere with agitation and with 25 µm of an unstirred water layer in the Gut-Box (Pion). After 4 h, a 150 µL/well sample from the donor plate and a 150 µL/well sample from the acceptor plate were transferred to HPLC vials. Then, 100 µL from acceptor well, 5 µL from the donor well and 5 µL from the t0 samples were injected into an HPLC reverse-phase symmetry C18 column (150 mm×4.6 mm×5 µm, 100 Å; Waters). Transport was confirmed by HPLC mass spectrometry and matrix-assisted laser desorption/ionization time-of-flight (MALDI-TOF) spectrometry to ensure the compound had maintained its integrity. The phospholipid mixture used was a porcine polar brain lipid extract composed of 12.6% phosphatidylcholine (PC), 33.1% phosphatidylethanolamine (PE), 18.5% phosphatidylserine (PS), 4.1% phosphatidylinositol (PI), 0.8% phosphatidic acid and 30.9% of other compounds."}, "[3]": {"system": "rat mixed astrocyte-neuron cultures", "assay": "NMDA-induced caspase 3 activation in mixed astrocyte-neuron cultures", "format": "cell-based", "conditions": "pre- or co-treatment; MTA 250 µM, MK-801 10 µM; 300 µM NMDA", "method": "as §1\nTo assay N-methyl–D-aspartate (NMDA) excitotoxicity, primary cultures were seeded in 24-well plates at 15×10^4 cells/well, cultured for 7 days in vitro, and treated for different times with the vehicle alone (dimethyl sulfoxide (DMSO) 1%), NMDA (300 µM), NMDA (300 µM) + MTA (250 µM) or NMDA (300 µM) + MK-801, a NMDA receptor antagonist (10 µM). […] Caspase 3 activity was measured in these lysates one hour after the NMDA addition.\nCortical neurons, or mixed cortical neurons and glia, were seeded in poly-L-lysine-coated 6-well culture plates during 7 days in vitro before start the set of experiments. […] The extracts were then centrifuged at 5,000×g for 10 min at 4°C and the protein content was determined by the BCA protein assay. […]"}, "[4]": {"system": "C57Bl mice treated with MPTP", "assay": "MPTP mouse model of Parkinson's disease, stereological counting of TH+ neurons", "format": "in vivo", "conditions": "MTA 30 mg/kg, MSX-3 10 mg/kg (legend: 9 mg/kg), alone or combined; MPTP 30 mg/kg i.p. 5 days", "method": "12-week-old male C57Bl mice from Charles River (Barcelona, Spain) were injected i.p. with 30 mg/kg 1-methyl-4-phenyl-1,2,3,6-tetrahydropyridine (MPTP, Sigma-Aldrich) on five consecutive days. Subsequently, MTA (30 mg/kg) and/or the A2A adenosine receptor (A2AR, 10 mg/kg) antagonist, MSX-3 (Sigma-Aldrich), was administered one day before starting MPTP treatment and 1 h after each MPTP injection (n = 6 in each experimental group). We used mice in the MPTP model because rats are resistant to systemic MPTP administration and thus, the rat MPTP model requires stereotaxic MPTP injection directly into the nigrostriatal fibers. […]\nThe reference volume was calculated according to Cavalieri principles from images obtained with a 2× objective using a point count array. The cross-sectional area of the nucleus was measured and the reference volume (Vr) for the entire nucleus was estimated using the following equation: [drawing 1] where T is the thickness of the sections, a/p is the area of each point and Pi is the number of points that landed within the area. The region of interest to estimate the area was outlined at low magnification (4×), and the number of labeled neurons was calculated under 100× magnification (with oil immersion) using randomized meander sampling and the optical dissector methods. […]"}, "[5]": {"system": "co-culture of bovine-brain endothelial cells (BBECs) and newborn rat astrocytes", "assay": "In vitro cell model of transport across the BBB", "format": "in vitro ADME", "method": "A in vitro cell model of BBB permeability was established using a co-culture of bovine-brain endothelial cells (BBECs) and newborn rat astrocytes. The cells were first cultured in 24-well (Transwell^R) permeable supports with a surface area of 0.33 cm^2 and a pore size of 0.4 µm (Corning), the upper surface of which was coated with collagen type IV and fibronectin. The inserts were then placed upside down in a large petri dish, and 40 µL of a suspension (containing approximately 45,000 astrocytes) was placed on the bottom of each filter. The petri dish was incubated at 37°C for 1 h, and 40 µL of fresh DMEM+S was added to the bottom of each filter every 15 min. The inserts were then transferred back to the plate and incubated at 37°C in 5% CO2 for 3 d. Then, 2 h before seeding the BBECs, the medium was replaced by DMEM+S supplemented with 125 µg/mL heparin and 2 h later, the cells were seeded onto the inserts (45,000 cells per filter). The plate was incubated at 37°C in 5% CO2 for 3 more days, after which the medium was replaced by DMEM+S supplemented with cyclic adenosine monophosphate (cAMP) and RO-20-1724, and kept at 37°C in 5% CO2. On day 8 of the co-culture, the transendothelial electrical resistance (TEER) was measured to determine whether the system was ready for transport studies. To validate the maturity of the model, permeability assays with lucifer yellow (LY) were performed in parallel as a marker of the integrity of the in vitro barrier. During the permeability assay, the samples were co-incubated with LY (20 µM) to assess the integrity of the cellular monolayer during the assay."}},
  "data": [
    {"molecule": "N[C@H](CCCP(=O)(O)O)C(=O)O", "note": "[APV, (2R)-amino-5-phosphonovaleric acid, reference compound]", "values": [
      {"measurement": "protection against OGD (cell death, LDH release)", "setting": "[1]", "value": "similar"}
    ]},
    {"molecule": "NC(=O)N1c2ccccc2C=Cc2ccccc21", "note": "[Carbamazepine]", "values": [
      {"measurement": "% Membrane retention", "setting": "[2]; 200 µM, pH 7.4, 4 h at RT", "value": 0.5, "unit": "%"},
      {"measurement": "Papp at 4 h, 200 µM", "setting": "[2]; 200 µM, pH 7.4, 4 h at RT, read-out: Pe x 10^−6", "value": 11.5, "unit": "×10⁻⁶ cm/s"}
    ]},
    {"molecule": "C[C@]12N[C@H](Cc3ccccc31)c1ccccc12", "note": "[MK-801, reference compound]", "values": [
      {"measurement": "caspase 3 activation induced by NMDA", "setting": "[3]", "value": "reverted to basal levels"}
    ]},
    {"molecule": "C#CCn1c(=O)c2c(nc(/C=C/c3cccc(OC)c3)n2C)n(CCCOP(=O)([O-])[O-])c1=O.[Na+].[Na+]", "note": "[MSX-3, reference compound]", "values": [
      {"measurement": "neuroprotection: TH+ neurons in the substantia nigra", "setting": "[4]", "value": "not statistically significant"}
    ]},
    {"molecule": "CC(C)NCC(O)COc1cccc2ccccc12", "note": "(stereo not drawn) [Propanolol, propranolol]", "values": [
      {"measurement": "Membrane retention", "setting": "[2]", "value": 30, "unit": "%"},
      {"measurement": "% Membrane retention", "setting": "[2]; 200 µM, pH 7.4, 4 h at RT", "value": 30.2, "unit": "%"},
      {"measurement": "Pe x 10^−6 (cm/s)", "setting": "[2]; 200 µM, pH 7.4, 4 h at RT", "value": "10.3 x 10^−6 cm/s"}
    ]},
    {"molecule": "Apo E: control compound in the in vitro cell model of BBB", "values": [
      {"measurement": "Pe x 10^−6 (cm/s)", "setting": "[5]", "value": "2.2 x 10^−6 cm/s"},
      {"measurement": "effective permeability coefficient (Pe)", "setting": "[5]", "value": 2.2, "unit": "×10⁻⁶ cm/s"}
    ]},
    {"molecule": "Transferrin: control compound in the in vitro cell model of BBB", "values": [
      {"measurement": "Pe x 10^−6 (cm/s)", "setting": "[5]", "value": "8.2 x 10^−6 cm/s"},
      {"measurement": "effective permeability coefficient (Pe)", "setting": "[5]", "value": 8.2, "unit": "×10⁻⁶ cm/s"}
    ]}
  ]
}
